Values quoted from earlier work, collected in patent publication US20080069909A1, “MENOPAUSE DISORDER SYNERGISTIC PHYTO-NUTRACEUTICAL COMPOSITION” (priority 2006, published 2008).
Where two headings read alike, the source gives them in different places. One block for each compound: values may come before it.

Key:
[1] = system: bacterial resistance mechanism (multidrug pump)
beta-estrogenic receptor = beta-estrogenic receptor (Homo sapiens, UniProt Q92731)
beta-estrogenic receptor, sequence (Q92731 whole entry): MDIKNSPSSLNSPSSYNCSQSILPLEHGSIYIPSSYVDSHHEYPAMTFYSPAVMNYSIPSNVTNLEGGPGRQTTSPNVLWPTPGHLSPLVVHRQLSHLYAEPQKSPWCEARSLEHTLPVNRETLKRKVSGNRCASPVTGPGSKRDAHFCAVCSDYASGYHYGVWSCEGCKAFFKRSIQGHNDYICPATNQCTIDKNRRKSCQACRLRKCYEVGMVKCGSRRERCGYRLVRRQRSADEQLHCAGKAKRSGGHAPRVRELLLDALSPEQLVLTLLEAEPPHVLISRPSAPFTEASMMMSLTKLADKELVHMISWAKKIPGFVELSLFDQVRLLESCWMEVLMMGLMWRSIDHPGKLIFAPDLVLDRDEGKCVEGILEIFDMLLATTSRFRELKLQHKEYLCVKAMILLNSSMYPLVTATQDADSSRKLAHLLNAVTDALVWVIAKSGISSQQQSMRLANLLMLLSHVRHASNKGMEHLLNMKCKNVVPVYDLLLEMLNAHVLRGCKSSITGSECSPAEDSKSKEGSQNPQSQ

Structure (SMILES): COc1cc([C@H]2Oc3cc(-c4cc(=O)c5c(O)cc(O)cc5o4)cc(OC)c3O[C@@H]2CO)ccc1O (racemic) [5′-MHC, 5′-methoxyhydnocarpin]
activity of herbal Berberine alkaloids ([1]; by the action of 5′-MHC): strongly potentiated | accumulation of berberine in the cells ([1]; in the presence of 5′-MHC): strong increase

binding to estrogen receptors (estrogen receptors): can bind to estrogen receptors
Structure (SMILES): CCCCC/C=C\C/C=C\CCCCCCCC(=O)O [Linoleic acid]
induction of estrogen inducible genes (estrogen inducible genes): induce certain estrogen inducible genes

receptor ligand (beta-estrogenic receptor): specific ligands
Structure (SMILES): COc1cc2oc(-c3ccc(O)cc3)c(OC)c(=O)c2c(O)c1OC [Penduletin]

receptor ligand (beta-estrogenic receptor): specific ligands
Structure (SMILES): O=c1cc(-c2ccc(O)cc2)oc2cc(O)cc(O)c12 [apigenin]

Structure (SMILES): O=c1c(-c2ccc(O)cc2)coc2c([C@@H]3O[C@H](CO)[C@@H](O)[C@H](O)[C@H]3O)c(O)ccc12 [puerarin]
estrogen-like effect (estrogen receptor; estrogen-deficiency animals): weak estrogen-like effect | estrogen-like effect (estrogen receptor; high-estrogen-level animals): antiestrogen-like effect | estrogen-like effect (estrogen receptor; normal-estrogen level animals): no effect
